Tested on: human cervical carcinoma (CaSki) tumor
Experiment: Anti-tumor effect of prodrug and radiation therapy, CaSki tumor-bearing mice (Example 2)
Settings: 5 Gy irradiation in three fractions plus i.v. drug (prodrug 30 mg/kg, free mitomycin C 3.3 mg/kg), 21 days, FIG. 1
Protocol: Tumor volume was measured for 21 days and the change in tumor volume (ratio of tumor volume at day zero to tumor volume at indicated day post injection) as a function of days post injection of the chemotherapeutic agent was measured.
Cells from a human cervical carcinoma cell line, CaSki, were injected subcutaneously (1 million cells in 200 μL 1:1 RPMI and matrigel) into the left flank of 8 week old female Nu mice. Two weeks after inoculation, mice were treated three times with 5 Gy irradiation. […] Tumor volume was measured for 21 days in all test mice.

Question: For `CO[C@@]12[C@H](COC(N)=O)C3=C(C(=O)C(C)=C(N)C3=O)N1C[C@@H]1N[C@@H]12` [free mitomycin C, mitomycin C], which “tumor growth (change in tumor volume)” value is on record?
Answer: little or no tumor growth

— patent US9937261B2 (LIPOMEDIX PHARMACEUTICALS LTD., priority 2014, dated 2018)
